Source: patent US12559492B2, “BRAF degraders” (C4 Therapeutics, Inc., priority 2020, dated 2026)

Molecular target: BRAF^V600E protein (Homo sapiens, UniProt P15056, V600E)
Test: HiBiT cellular BRAF V600E degradation assay
Format: cell-based
Conditions: 24 h incubation; for DC50: A375.10 cells (HiBiT tag knocked in at N-terminal of BRAF V600E), concentration at which 50% of total cellular BRAF V600E is degraded; for Emax / HiBit 24 h Emax: A375.10 cells, Emax = amount of residual protein remaining in the cell after compound treatment; for Emax: read-out: HiBit 24 h Emax
Excerpt: DMEM no-phenol red medium supplemented with L-glutamine was purchased from (Corning). Fetal bovine serum (FBS) was purchased from Gibco (Grand Island, NY, USA). Nano-Glo® HiBiT Lytic Assay Buffer & Reagents were purchased from Promega (Madison, WI, USA). […] Cell culture flasks and 384-well black flat-bottom polystyrene TC-treated microplates were acquired from Corning (Corning, NY, USA).
HiBiT Cellular BRAFv^600E Degradation Assay
Prior to the assay, the A375.10 cell line is maintained in DMEM no-phenol red medium supplemented with 10% fetal bovine serum (FBS). […] Briefly, test compounds were added to the 384-well plate from a top concentration of 10 μM with 11 half log dilutions of compound, plated in duplicate. Then, 30 uL of a suspension of A375.10 cell lines was dispensed into columns 1-24 of the 384-well plates at a cell density of 7500 cells per well. The plates were kept at 37° C. with 5% CO2 for the duration of the assay (6 or 24 hr). After the desired incubation time with compound, 30 uL of Nano-Glo® HiBiT Lytic Buffer containing LgBiT protein (diluted 1:100) and luminescence substrate (diluted 1:50) were added to the cells in columns 1-23 of the assay plate. The plate was the incubated for 30 min on the bench at room temperature. Finally, HiBiT luminescence signal was acquired on EnVision™ Multilabel Reader (PerkinElmer, Santa Clara, CA, USA).
Quantification of luminescence responses measured in the presence of compound were normalized to a high signal/no degradation control (untreated cells+lytic detection reagent) and a low signal/full degradation control (untreated cells, no lytic detection reagent). Data were analyzed with a 4-parameter logistic fit to generate sigmoidal dose-response curves. […] The Emax, or maximum effect of each compound, represents the amount of residual protein remaining in the cell following compound treatment.

Chain of BRAF^V600E protein (P15056 whole entry V600E): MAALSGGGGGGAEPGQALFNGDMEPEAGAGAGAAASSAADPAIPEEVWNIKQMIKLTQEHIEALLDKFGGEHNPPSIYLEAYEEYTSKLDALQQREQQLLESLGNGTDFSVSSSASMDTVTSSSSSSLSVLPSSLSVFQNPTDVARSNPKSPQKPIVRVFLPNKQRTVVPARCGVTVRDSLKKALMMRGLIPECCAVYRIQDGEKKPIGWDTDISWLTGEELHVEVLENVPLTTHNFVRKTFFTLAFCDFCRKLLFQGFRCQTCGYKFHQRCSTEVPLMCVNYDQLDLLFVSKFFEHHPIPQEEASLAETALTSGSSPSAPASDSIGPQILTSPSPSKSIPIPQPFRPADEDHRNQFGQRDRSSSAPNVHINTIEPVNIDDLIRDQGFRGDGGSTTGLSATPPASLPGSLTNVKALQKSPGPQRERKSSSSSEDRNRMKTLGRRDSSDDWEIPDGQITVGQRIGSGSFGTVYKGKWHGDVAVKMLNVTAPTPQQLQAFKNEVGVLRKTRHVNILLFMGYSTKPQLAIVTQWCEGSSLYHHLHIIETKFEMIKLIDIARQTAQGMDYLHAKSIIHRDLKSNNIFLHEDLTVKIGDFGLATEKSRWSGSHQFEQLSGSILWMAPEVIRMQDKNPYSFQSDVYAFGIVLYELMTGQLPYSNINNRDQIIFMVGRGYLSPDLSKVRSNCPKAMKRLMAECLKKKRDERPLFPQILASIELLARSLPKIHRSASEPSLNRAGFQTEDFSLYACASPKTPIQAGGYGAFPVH

DC50 [nM]	Emax [%]	HiBit 24 h Emax [%]	SMILES
10.7	3.41	–	CC(C)S(=O)(=O)Nc1ccc(F)c(C(=O)c2c[nH]c3ncc(-c4cnc(N5CCN(C(=O)CN6CCC(c7ccc(C8CCC(=O)NC8=O)cc7F)CC6)CC5)nc4)cc23)c1F (centres unmarked) [Example 9, N-[3-[5-[2-[4-[2-[4-[4-(2,6-dioxo-3-piperidyl)-2-fluoro-phenyl]-1-piperidyl]acetyl]piperazin-1-yl]pyrimidin-5-yl]-1H-pyrrolo[2,3-b]pyridine-3-carbonyl]-2,4-difluoro-phenyl]propane-2-sulfonamide]
4.45	8.46	–	CC(C)S(=O)(=O)Nc1ccc(F)c(C(=O)c2c[nH]c3ncc(-c4cnc(N5CCN(C(=O)CN6CCC(c7ccc8c(N9CCC(=O)NC9=O)nn(C)c8c7)CC6)CC5)nc4)cc23)c1F [Example 10, N-[3-[5-[2-[4-[2-[4-[3-(2,4-dioxohexahydropyrimidin-1-yl)-1-methyl-indazol-6-yl]-1-piperidyl]acetyl]piperazin-1-yl]pyrimidin-5-yl]-1H-pyrrolo[2,3-b]pyridine-3-carbonyl]-2,4-difluoro-phenyl]propane-2-sulfonamide]
5.08	7.97	–	CC(C)S(=O)(=O)Nc1ccc(F)c(C(=O)c2c[nH]c3ncc(-c4ccc(N5CCN(C(=O)CN6CCC(c7ccc(NC8CCC(=O)NC8=O)cc7)CC6)CC5)nc4)cc23)c1F (centres unmarked) [Example 11, N-[3-[5-[6-[4-[2-[4-[4-[(2,6-dioxo-3-piperidyl)amino]phenyl]-1-piperidyl]acetyl]piperazin-1-yl]-3-pyridyl]-1H-pyrrolo[2,3-b]pyridine-3-carbonyl]-2,4-difluoro-phenyl]propane-2-sulfonamide]
9.73	8.03	–	CC(C)S(=O)(=O)Nc1ccc(F)c(C(=O)c2c[nH]c3ncc(-c4ccc(N5CCN(C(=O)CN6CCC(c7ccc(NC8CCC(=O)NC8=O)cc7F)CC6)CC5)nc4)cc23)c1F (centres unmarked) [Example 12, N-[3-[5-[6-[4-[2-[4-[4-[(2,6-dioxo-3-piperidyl)amino]-2-fluoro-phenyl]-1-piperidyl]acetyl]piperazin-1-yl]-3-pyridyl]-1H-pyrrolo[2,3-b]pyridine-3-carbonyl]-2,4-difluoro-phenyl]propane-2-sulfonamide]
20.9	9.56	–	CC(C)S(=O)(=O)Nc1ccc(F)c(C(=O)c2c[nH]c3ncc(-c4ccc(N5CCN(C(=O)CN6CCC(c7ccc(OC8CCC(=O)NC8=O)cc7)CC6)CC5)nc4)cc23)c1F (centres unmarked) [Example 13, N-[3-[5-[6-[4-[2-[4-[4-[(2,6-dioxo-3-piperidyl)oxy]phenyl]-1-piperidyl]acetyl]piperazin-1-yl]-3-pyridyl]-1H-pyrrolo[2,3-b]pyridine-3-carbonyl]-2,4-difluoro-phenyl]propane-2-sulfonamide]
8.56	3.41	–	CC(C)S(=O)(=O)Nc1ccc(F)c(C(=O)c2c[nH]c3ncc(-c4ccc(N5CCN(C(=O)CN6CCC(c7ccc(C8CCC(=O)NC8=O)cc7)CC6)CC5)nc4)cc23)c1F (centres unmarked) [Example 14, N-[3-[5-[6-[4-[2-[4-[4-(2,6-dioxo-3-piperidyl)phenyl]-1-piperidyl]acetyl]piperazin-1-yl]-3-pyridyl]-1H-pyrrolo[2,3-b]pyridine-3-carbonyl]-2,4-difluoro-phenyl]propane-2-sulfonamide]
9.59	2.65	–	CC(C)S(=O)(=O)Nc1ccc(F)c(C(=O)c2c[nH]c3ncc(-c4ccc(N5CCN(C(=O)CN6CCC(c7ccc(C8CCC(=O)NC8=O)cc7F)CC6)CC5)nc4)cc23)c1F (centres unmarked) [Example 15, N-[3-[5-[6-[4-[2-[4-[4-(2,6-dioxo-3-piperidyl)-2-fluoro-phenyl]-1-piperidyl]acetyl]piperazin-1-yl]-3-pyridyl]-1H-pyrrolo[2,3-b]pyridine-3-carbonyl]-2,4-difluoro-phenyl]propane-2-sulfonamide]
2.85	–	7.93	CCN(C)S(=O)(=O)Nc1ccc(F)c(C(=O)c2c[nH]c3ncc(-c4cnc(N5CCN(C(=O)CN6CCC(c7ccc(NC8CCC(=O)NC8=O)cc7)CC6)CC5)nc4)cc23)c1F (centres unmarked) [Example 18, 5-[2-[4-[2-[4-[4-[(2,6-dioxo-3-piperidyl)amino]phenyl]-1-piperidyl]acetyl]piperazin-1-yl]pyrimidin-5-yl]-3-[3-[[ethyl(methyl)sulfamoyl]amino]-2,6-difluoro-benzoyl]-1H-pyrrolo[2,3-b]pyridine]
8.57	–	11.26	CCN(C)S(=O)(=O)Nc1ccc(F)c(C(=O)c2c[nH]c3ncc(-c4cnc(N5CCN(C(=O)CN6CCN(c7ccc(NC8CCC(=O)NC8=O)cc7)CC6)CC5)nc4)cc23)c1F (centres unmarked) [Example 19, 5-[2-[4-[2-[4-[4-[(2,6-dioxo-3-piperidyl)amino]phenyl]piperazin-1-yl]acetyl]piperazin-1-yl]pyrimidin-5-yl]-3-[3-[[ethyl(methyl)sulfamoyl]amino]-2,6-difluoro-benzoyl]-1H-pyrrolo[2,3-b]pyridine]
7.1	11.9	–	CCN(C)S(=O)(=O)Nc1ccc(F)c(C(=O)c2c[nH]c3ncc(-c4cnc(N5CCN(C(=O)CN6CCC(c7ccc(NC8CCC(=O)NC8=O)cn7)CC6)CC5)nc4)cc23)c1F (centres unmarked) [Example 21, 5-[2-[4-[2-[4-[5-[(2,6-dioxo-3-piperidyl)amino]-2-pyridyl]-1-piperidyl]acetyl]piperazin-1-yl]pyrimidin-5-yl]-3-[3-[[ethyl(methyl)sulfamoyl]amino]-2,6-difluoro-benzoyl]-1H-pyrrolo[2,3-b]pyridine]
19.4	–	18.02	CCN(C)S(=O)(=O)Nc1ccc(F)c(C(=O)c2c[nH]c3ncc(-c4cnc(N5CCN(C(=O)CN6CCC(c7ccc(N(C)C8CCC(=O)NC8=O)cc7)CC6)CC5)nc4)cc23)c1F (centres unmarked) [Example 22, 5-[2-[4-[2-[4-[4-[(2,6-dioxo-3-piperidyl)-methyl-amino]phenyl]-1-piperidyl]acetyl]piperazin-1-yl]pyrimidin-5-yl]-3-[3-[[ethyl(methyl)sulfamoyl]amino]-2,6-difluoro-benzoyl]-1H-pyrrolo[2,3-b]pyridine]
5.59	–	7.88	CCN(C)S(=O)(=O)Nc1ccc(F)c(C(=O)c2c[nH]c3ncc(-c4cnc(N5CCN(C(=O)CN6CCC(c7ccc(N8CCC(=O)NC8=O)cc7)CC6)CC5)nc4)cc23)c1F [Example 24, 5-[2-[4-[2-[4-[4-(2,4-dioxohexahydropyrimidin-1-yl)phenyl]-1-piperidyl]acetyl]piperazin-1-yl]pyrimidin-5-yl]-3-[3-[[ethyl(methyl)sulfamoyl]amino]-2,6-difluoro-benzoyl]-1H-pyrrolo[2,3-b]pyridine]
3.63	6.36	–	CCN(C)S(=O)(=O)Nc1ccc(F)c(C(=O)c2c[nH]c3ncc(-c4cnc(N5CCN(C(=O)CN6CCC(c7ccc(N[C@H]8CCC(=O)NC8=O)cc7)CC6)CC5)nc4)cc23)c1F [Example 25, 5-[2-[4-[2-[4-[4-[[(3S)-2,6-dioxo-3-piperidyl]amino]phenyl]-1-piperidyl]acetyl]piperazin-1-yl]pyrimidin-5-yl]-3-[3-[[ethyl(methyl)sulfamoyl]amino]-2,6-difluoro-benzoyl]-1H-pyrrolo[2,3-b]pyridine]
